Reference: patent publication US20070292351A1, “Assay for efficacy of histone deacetylase inhibitors” (Methylgene, Inc., priority 2006, published 2007)

Experiments:
[1] = test system: peripheral white blood cells from healthy volunteers; assay: Semi-quantitative PCR of MT3 in peripheral white blood cells treated ex vivo; assay type: cell-based, human; details: 24 hr or 48 hr (FIG. 6)
Procedure: Peripheral white blood cells were isolated from healthy volunteers and treated ex vivo with MGCD0103 at indicated doses for 24 hr or 48 hr. RNA was extracted to monitor MT3 mRNA level by conventional semi-quantitative PCR (normalized to β-actin).
(§1) Whole blood from either consenting healthy volunteers or consenting patients was centrifuged at 2500 rpm for 10 minutes at ambient temperature in a Sorvall RT-7 centrifuge (Mandel Scientific Co., Guelph, Ontario). Plasma was removed and buffy coat was collected. Five volumes of Erythrocyte Lysis Buffer (EL) (Qiagen Canada Inc., Mississauga, Ontario) were added into buffy coat. Buffy coat was incubated on ice for 20 minutes before it was centrifuged at 400 g for 10 minutes at 4° C. Supernatant was removed and buffy coat was washed twice with EL buffer and re-centrifuged. Buffy coat was resuspended in RPMI media and cells were counted with trypan blue exclusion. To isolate PBMCs, buffy coat cells were centrifuged over Lymphoprep (Axis-Shield, 1114544), and any remaining erythrocytes in the sample were lysed by treatment with EL lysis buffer (Qiagen, 79217). The cell pellets are washed and then re-suspended in RPMI containing 10% FBS.
RNA was extracted from 8×10^6 cells using the Qiagen RNeasy Mini kit (cat#74106, Qiagen, Missisauga Ont.) following the manufacturer's instructions. […]

[2] = test system: histone H3 acetylation; assay: Histone acetylation of nuclear extracts from white blood cells; assay type: in vivo, human; details: AML Patient A with clinical response (FIG. 9)
Procedure: Human white peripheral cells were resuspended in 50 ul cold lysis buffer (10 mM Tris-HCl pH8.0, 1.5 mM MgCl2, 5 mM KCl, 0.5% NP-40, 5 mM Na butyrate plus protease inhibitors) and incubated on ice for 10 min. Cells were centrifuged at […] in an IEC Micromax centrifuge (Fisher Scientific Ltd., Nepean, Ontario) at 4° C. for 10-15 min and nuclei collected. Nuclei were washed with 50 ul lysis buffer by centrifugation at 2000 rpm at 4° C. for 10-15 min. Nuclei were resuspended in 35 ul ice cold Nuclear Lysis buffer (50 mM HEPES pH7.5, 500 mM NaCl, 1% NP-40, 1 mM EDTA, 10% glycerol, 5 mM NaButyrate and protease inhibitors) and sonicated 10 seconds using a VirSonic 300 sonicator (VirTis, Gardiner, N.Y.). Lysed nuclei were centrifuged at 15000 rpm at 4° C. for 5 min and supernatant collected for ELISA.
Black plates were coated with 50 ul of diluted anti-Histone antibodies (H11-4, Chemicon, Temecula, Calif.) (1:1000 in TBS) and incubated at ambient temperature for 2 hours. Plates were washed twice with 50 ul of PBS and blocked with 1% BSA+0.1% TritonX-100 in PBS (50 ul) for 45 minutes. […] Fluoroscence development was allowed for 60 minutes in foil and plates were read on a fluorometer (Gemini XS, Molecular Devices, Sunnyvale, Calif.) at Excitation at 550 nm and emission at 610 nm with a cutoff of 590 nm (Auto PMT, 15 reads/well). Data were analyzed using Excel.

[3] = test system: peripheral white cells; assay: Cytokine/chemokine transcription in peripheral white cells treated ex vivo; assay type: cell-based, human
Procedure: FIG. 15 Induction of transcription of IL-6, IL-8, IL-1b, MIP1b cytokine/chemokines by MGCD0103 in peripheral white cells ex vivo from a MDS patient and in vivo in an AML patient with response (Patient J).
as §1

Which results are given for Nc1ccccc1NC(=O)c1ccc(CNc2nccc(-c3cccnc3)n2)cc1 [MGCD0103]?
Induction of MT3 transcription ex vivo [1]: time-dependent and dose-dependent; induction of histone H3 acetylation in peripheral white cells [2]: induction; induction of transcription of IL-6, IL-8, IL-1b, MIP1b ([3]; peripheral white cells ex vivo from a MDS patient (Patient J) (FIG. 15)): induction; induction of transcription of IL-6, IL-8, IL-1b, MIP1b ([3]; peripheral white cells from healthy volunteers treated ex vivo (FIG. 15)): No such induction
